{
  "source": "patent EP2210881A1",
  "about": "“Derivatives of syringolin A” (Max-Planck-Gesellschaft zur Förderung der Wissenschaften …, priority 2009, dated 2010)",
  "assay_type_in_all_cases": "biochemical",
  "key": {"human 20S proteasome [1]": {"molecular_target": "T1, human 20S proteasome (Homo sapiens, UniProt P28074)", "T1 construct": "human erythrocyte 20S proteasomes (AK-740, Biomol); purchased Biomol AK-740; host or cells: human erythrocytes", "experiment": "Proteasome inhibition assay, chymotryptic activity (substrate Suc-LLVY-AMC)", "text": "(§1) The Ki' value is defined as the apparent dissociation constant of the inhibitor. The Ki' value can be calculated from the IC50 value using the equation: Ki' = IC50 * Km / (S+Km), wherein S is the concentration of the substrate, and Km is the substrate concentration (in the absence of an inhibitor) at which the velocity of the reaction is half-maximal. The Ki' of an inhibitor for inhibition of a particular substrate (fixed Km) is constant.\nAs used herein, the term \"chymotryptic activity\" refers to inhibition of the human 20S proteasome measured by the reduced proteolytic cleavage of the \"chymotryptic\" proteasome substrate Suc-LLVY-AMC.\n(§2) Proteasome inhibition assays were performed with human erythrocyte 20S proteasomes (AK-740, Biomol) at 37 °C in 100 µL reaction volumes containing 2 µg ml^-1 20 proteasome and 100 µM Suc-LLVY-AMC as a substrate. Cleavage efficience in presence of varying inhibitor concentrations were followed by an MWGt Sirius HT plate reader (BIO-TEK instruments) equipped with 360 nm excitation and 460 nm emission filters. The obtained fluorescence values (RFU) were plotted versus time (t). The fluorescence data were fitted by the least squares method using SigmaPlot 10.0 software (Systat Software) to the equation f = f0 + Vst + [(vi - vs)/kobs][1-exp(-kobs*t)], where vi and vs are initial and final velocities, respectively, and kobs is the pseudo-first order associaten rate constant. Ki' values were then determined by plotting vi against inhibitor concentration [I]. Using SigmaPlot, the data were fitted with the hyperbolic equation vi = c + [v0/(Ki' + [I])] where v0 is the velocity of the control."}, "human 20S proteasome [2]": {"molecular_target": "T2, human 20S proteasome (Homo sapiens, UniProt Q99436)", "T2 construct": "human erythrocyte 20S proteasomes (AK-740, Biomol); purchased Biomol AK-740; host or cells: human erythrocytes", "experiment": "Proteasome inhibition assay, tryptic activity (substrate Boc-LRR-AMC)", "text": "as §1\nAs used herein, the term \"tryptic activity\" refers to inhibition of the human 20S proteasome measured by the reduced proteolytic cleavage of the \"tryptic\" proteasome substrate Boc-LRR-AMC.\nas §2\nThe inhibition of the tryptic proteasome activity was performed in analogy to example 7 with using Boc-LRR-AMC as a substrate instead of Suc-LLVY-AMC."}, "human 20S proteasome [3]": {"molecular_target": "T3, human 20S proteasome (Homo sapiens, UniProt P28072)", "T3 construct": "human erythrocyte 20S proteasomes (AK-740, Biomol); purchased Biomol AK-740; host or cells: human erythrocytes", "experiment": "Proteasome inhibition assay, caspase-like activity (substrate Z-LLE-AMC)", "text": "as §1\nAs used herein, the term \"caspase-like activity\" refers to inhibition of the human 20S proteasome measured by the reduced proteolytic cleavage of the \"caspase-lie\" proteasome substrate Z-LLE-AMC.\nas §2\nThe inhibition of the caspase-like proteasome activity was performed in analogy to example 7 with using Z-LLE-AMC as a substrate instead of Suc-LLVY-AMC."}},
  "note": "Read-outs that look alike come from different tables or passages of the source.",
  "data": [
    {"smiles": "COC(=O)[C@@H](NC(=O)N[C@H](C(=O)N[C@H]1/C=C/CCNC(=O)/C=C/[C@H](C(C)C)NC1=O)C(C)C)C(C)C", "note": "[Compound 1, SylA-OCH3]", "values": [
      {"measurement": "Ki", "setting": "human 20S proteasome [1]", "value": "> 100", "unit": "nM"},
      {"measurement": "Ki", "setting": "human 20S proteasome [2]", "value": "> 100", "unit": "nM"},
      {"measurement": "Ki", "setting": "human 20S proteasome [3]", "value": "> 50000", "unit": "nM"}
    ]},
    {"smiles": "COCCOCCOCCNC(=O)N[C@H](C(=O)N[C@H]1/C=C/CCNC(=O)/C=C/[C@H](C(C)C)NC1=O)C(C)C", "note": "[Compound 5, SylA-PEG2]", "values": [
      {"measurement": "Ki", "setting": "human 20S proteasome [1]", "value": "< 20", "unit": "nM"},
      {"measurement": "Ki", "setting": "human 20S proteasome [2]", "value": "20 to 100", "unit": "nM"},
      {"measurement": "Ki", "setting": "human 20S proteasome [3]", "value": "> 100", "unit": "nM"}
    ]},
    {"smiles": "COCCOCCNC(=O)[C@@H](NC(=O)N[C@H](C(=O)N[C@H]1/C=C/CCNC(=O)/C=C/[C@H](C(C)C)NC1=O)C(C)C)C(C)C", "note": "[Compound 3, SylA-PEG1]", "values": [
      {"measurement": "Ki", "setting": "human 20S proteasome [1]", "value": "< 20", "unit": "nM"},
      {"measurement": "Ki", "setting": "human 20S proteasome [2]", "value": "20 to 100", "unit": "nM"},
      {"measurement": "Ki", "setting": "human 20S proteasome [3]", "value": "> 100", "unit": "nM"}
    ]},
    {"smiles": "CC(C)[C@H](NC(=O)N[C@H](C(=O)N[C@H]1/C=C/CCNC(=O)/C=C/[C@H](C(C)C)NC1=O)C(C)C)C(=O)NCCCCCNC(=O)c1ccc(-c2c3ccc(=[N+](C)C)cc-3oc3cc(N(C)C)ccc23)c(C(=O)[O-])c1", "note": "[Compound 2, SylA-Rhodamine]", "values": [
      {"measurement": "Ki", "setting": "human 20S proteasome [1]; read-out: chymotryptic activity [Ki' value in nM], human erythrocyte 20S proteasomes, substrate Suc-LLVY-AMC 100 µM, 37 °C, Ki' = apparent dissociation constant", "value": "> 100", "unit": "nM"},
      {"measurement": "Ki", "setting": "human 20S proteasome [2]; read-out: tryptic activity [Ki' value in nM], human erythrocyte 20S proteasomes, substrate Boc-LRR-AMC, 37 °C, Ki' = apparent dissociation constant", "value": "> 100", "unit": "nM"},
      {"measurement": "Ki", "setting": "human 20S proteasome [3]; read-out: caspase-like activity [Ki' value in nM], human erythrocyte 20S proteasomes, substrate Z-LLE-AMC, 37 °C, Ki' = apparent dissociation constant", "value": "> 50000", "unit": "nM"}
    ]},
    {"smiles": "CCCCCCCCCCNC(=O)N[C@H](C(=O)N[C@H]1/C=C/CCNC(=O)/C=C/[C@H](C(C)C)NC1=O)C(C)C", "note": "[Compound 4, SylA-decanyl]", "values": [
      {"measurement": "Ki", "setting": "human 20S proteasome [1]", "value": "< 20", "unit": "nM"},
      {"measurement": "Ki", "setting": "human 20S proteasome [2]", "value": "20 to 100", "unit": "nM"},
      {"measurement": "Ki", "setting": "human 20S proteasome [3]", "value": "> 100", "unit": "nM"}
    ]}
  ]
}
